Values joined by “and” are separate entries in the source; they are usually repeats but may differ in a detail not shown here. Identical values can stand only once. Records with an inconclusive call do not appear. Active and inactive are the calls of the source.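 How the source made its calls: active means fitted curve drops past -35% activity change at a concentration up to twice the top valid dose tested; inconclusive means no clear call, values can overlap the other calls; inactive means activity opposite to the expected decrease, or the rest.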
system: not listed separately; experiment: cytotoxicity in HepG2 hepatoma cells – cell-based, CellTiter-Glo luminescence, dry powder, cytotoxicity control for LMP1 inhibitor project, dose response (AID 624365); settings: HepG2 viability, CellTiter-Glo luminescence, 48 h; at 10 µM (top of the series)

**Q.** For `C/C(=N\NC(=S)Nc1ccccc1)c1ccccn1`, which activity change, negative = cytotoxicity is on record?
**A.** -2.52% (inactive)

**Q.** Which activity change, negative = cytotoxicity does the source give for `C/C(=N\NC(=S)N1CCN(c2ccccn2)CC1)c1ccccn1` here?
**A.** -18.8% (inactive)

same assay, conditions: HepG2 viability, CellTiter-Glo luminescence, 48 h; at 12 µM (top of the series)

**Q.** With `C=C1C[C@]23C[C@@]1(O)CC[C@H]2[C@@]12C=C[C@H](O)[C@@](C)(C(=O)O1)[C@H]2[C@@H]3C(=O)O` as the compound, how does the activity change, negative = cytotoxicity read?
**A.** 9.94% (inactive)

same assay, conditions: HepG2 viability, CellTiter-Glo luminescence, 48 h; at 19.5 µM (top of the series)

**Q.** For `CCc1ccc(/C=C2\SC(=S)N(CCCC(=O)Nc3ccccn3)C2=O)cc1`, which activity change, negative = cytotoxicity is on record?
**A.** -1.2% (inactive)

**Q.** Which activity change, negative = cytotoxicity does the source give for `CCCSc1nnc2c3ccccc3n(Cc3ccccc3)c2n1` here?
**A.** -1.67% (inactive)

**Q.** For `CCc1sc(C(=O)Nc2ncccc2O)cc1C`, which activity change, negative = cytotoxicity is on record?
**A.** -0.832% (inactive)

**Q.** Which activity change, negative = cytotoxicity does the source give for `C[C@@H]1CCCCO[C@@H](CN(C)Cc2ccccc2)[C@H](C)CN([C@H](C)CO)C(=O)c2cc(NC(=O)Nc3ccc4c(c3)OCO4)ccc2O1` here?
**A.** -6.99% (inactive)

**Q.** For `Cc1ccc(NC(=O)C2CCN(S(=O)(=O)c3ccc4c(c3)NC(=O)C(C)S4)CC2)cc1Cl` (centres undefined), which activity change, negative = cytotoxicity is on record?
**A.** -15.1% (inactive)

**Q.** With `O=C(Nc1cc(C(F)(F)F)cc(C(F)(F)F)c1)Nc1cnn(-c2ccc([N+](=O)[O-])cc2)c1C(F)(F)F` as the compound, how does the activity change, negative = cytotoxicity read?
**A.** 11.8% (inactive)

**Q.** With `Cc1ccc(S(=O)(=O)Nc2ccc3c(c2)C(=O)N([C@@H](C)CO)C[C@H](C)[C@@H](CN(C)C(=O)CCC(F)(F)F)OCCCC[C@H](C)O3)cc1` as the compound, how does the activity change, negative = cytotoxicity read?
**A.** 1.23% (inactive)

**Q.** For `C[C@@H]1CCCCO[C@H](CN(C)C(=O)CCC(F)(F)F)[C@H](C)CN([C@@H](C)CO)C(=O)c2cc(NC(=O)CCC(F)(F)F)ccc2O1`, which activity change, negative = cytotoxicity is on record?
**A.** 6.76% (inactive)

**Q.** With `CCN1CCN(C(c2cccnc2)c2cc(Cl)c3cccnc3c2O)CC1` (centres undefined) as the compound, how does the activity change, negative = cytotoxicity read?
**A.** -19.9% (inactive)

**Q.** For `COc1ccc(-c2csc3ncnc(NCCN4CCOCC4)c23)cc1`, which activity change, negative = cytotoxicity is on record?
**A.** -1.72% (inactive)

**Q.** Which activity change, negative = cytotoxicity does the source give for `C[C@@H]1CCCCO[C@H](CN(C)CC2CCCCC2)[C@H](C)CN([C@@H](C)CO)C(=O)c2cc(NC(=O)NC3CCCCC3)ccc2O1` here?
**A.** -0.214% (inactive)

**Q.** With `COCCCNC(=O)C(C)Sc1nnc2c3cc(C)ccc3n(Cc3ccccc3F)c2n1` (centres undefined) as the compound, how does the activity change, negative = cytotoxicity read?
**A.** -14.5% (inactive)

**Q.** With `Cc1cc(NC(=O)c2ccc3c(c2)OCCO3)no1` as the compound, how does the activity change, negative = cytotoxicity read?
**A.** 14.9% (inactive)

**Q.** Which activity change, negative = cytotoxicity does the source give for `COc1ccc(-c2cc3nc4n(c(=O)c3s2)CCC4)cc1` here?
**A.** -14.3% (inactive)

**Q.** With `CSC(=S)N/N=C(\C)c1cccc(C)n1` as the compound, how does the activity change, negative = cytotoxicity read?
**A.** 1.36% (inactive)

**Q.** Which activity change, negative = cytotoxicity does the source give for `C[C@@H]1CN([C@@H](C)CO)C(=O)c2cccc(NC(=O)Nc3cccc4ccccc34)c2O[C@H]1CN(C)C(=O)Nc1ccc(C(F)(F)F)cc1` here?
**A.** -1.58% (inactive)

**Q.** For `CCc1ccc(/C=C/C(=O)C2C(=O)c3ccccc3C2=O)cc1`, which activity change, negative = cytotoxicity is on record?
**A.** -7.16% (inactive)

**Q.** Which activity change, negative = cytotoxicity does the source give for `O=C(CCc1ccccc1)NC(c1cccs1)c1cc(Cl)c2cccnc2c1O` (centres undefined) here?
**A.** 1.94% (inactive)

**Q.** For `Cc1ccc(S(=O)(=O)NC(CC(C)C)C(=O)NCC(c2ccco2)N2CCCCC2)cc1` (centres undefined), which activity change, negative = cytotoxicity is on record?
**A.** 14.4% (inactive)

**Q.** For `C[C@@H]1CCCCO[C@H](CN(C)C(=O)NC2CCCCC2)[C@H](C)CN([C@@H](C)CO)C(=O)c2cc(NC(=O)C3CCCCC3)ccc2O1`, which activity change, negative = cytotoxicity is on record?
**A.** 11% (inactive)

**Q.** With `CC1CN(C(=O)CSc2nnc3c4ccccc4n(Cc4cccc(Cl)c4)c3n2)CCN1C(=O)c1ccccc1F` (centres undefined) as the compound, how does the activity change, negative = cytotoxicity read?
**A.** -2.74% (inactive)

**Q.** With `Cc1c(NC(=O)c2cccc(NC(=O)COc3ccccc3C#N)c2)c(=O)n(-c2ccccc2)n1C` as the compound, how does the activity change, negative = cytotoxicity read?
**A.** 0.795% (inactive)

**Q.** Which activity change, negative = cytotoxicity does the source give for `c1ccc(-c2cn3c4c(sc3n2)CCCC4)cc1` here?
**A.** -13.4% (inactive)

**Q.** With `C[C@H](CO)N1C[C@H](C)[C@@H](CN(C)CC2CCCCC2)OCCCC[C@H](C)Oc2ccc(NC(=O)Nc3cccc4ccccc34)cc2C1=O` as the compound, how does the activity change, negative = cytotoxicity read?
**A.** -6.9% (inactive)

**Q.** With `O=c1[nH]c(Nc2nc3ccccc3o2)nc2c1CCCC2` as the compound, how does the activity change, negative = cytotoxicity read?
**A.** -6.44% (inactive)

**Q.** With `C/C(=N\NC(=S)N1CC2CCC(CC2)C1)c1cccc(C)n1` as the compound, how does the activity change, negative = cytotoxicity read?
**A.** -9.43% (inactive)

**Q.** Which activity change, negative = cytotoxicity does the source give for `C=CCN1Cc2ccccc2[C@@H]2OC(c3ccc(OCCCO)cc3)=N[C@]2(CCC(=O)OC(C)(C)C)C1=O` here?
**A.** 4.76% (inactive)

**Q.** Which activity change, negative = cytotoxicity does the source give for `C=C1C[C@]23C[C@@]1(O)CC[C@@H]2c1cccc(C)c1[C@@H]3C(=O)O` here?
**A.** -23.5% (inactive)

**Q.** Which activity change, negative = cytotoxicity does the source give for `CC1=C(C(=O)OCc2ccc3c(c2)OCO3)C(c2ccc(F)cc2)NC(=O)N1` (centres undefined) here?
**A.** 2.83% (inactive)

**Q.** With `COc1ccc(C(=O)Nc2ccc3[nH]ccc3c2)cc1` as the compound, how does the activity change, negative = cytotoxicity read?
**A.** 1.7% (inactive)

**Q.** With `C[C@@H]1CN([C@@H](C)CO)C(=O)c2cc(NC(=O)Nc3ccc(C(F)(F)F)cc3)ccc2O[C@@H](C)CCCCO[C@H]1CN(C)Cc1ccc(C(F)(F)F)cc1` as the compound, how does the activity change, negative = cytotoxicity read?
**A.** -1.82% (inactive)

**Q.** With `Cc1ccnc(NC(=O)c2ccc(C(=O)c3ccccc3)cc2)c1` as the compound, how does the activity change, negative = cytotoxicity read?
**A.** -6.85% (inactive)

**Q.** Which activity change, negative = cytotoxicity does the source give for `C[C@@H]1CCCCO[C@H](CN(C)C(=O)c2ccccc2)[C@H](C)CN([C@@H](C)CO)C(=O)c2cc(NC(=O)Nc3ccc(F)cc3)ccc2O1` here?
**A.** -6.27% (inactive)

**Q.** With `Oc1cccc(C(Nc2nccs2)c2ccc3cccnc3c2O)c1` (centres undefined) as the compound, how does the activity change, negative = cytotoxicity read?
**A.** 3.87% (inactive)

**Q.** With `CC12CCC3C(CC=C4CC(O)CCC43CO)C1CCC2OC(=O)c1ccccc1` (centres undefined) as the compound, how does the activity change, negative = cytotoxicity read?
**A.** 0.538% (inactive)

**Q.** With `C[C@@H]1CCCCO[C@H](CN(C)S(=O)(=O)c2ccccc2)[C@@H](C)CN([C@@H](C)CO)C(=O)c2cc(N(C)C)ccc2O1` as the compound, how does the activity change, negative = cytotoxicity read?
**A.** -0.756% (inactive)

**Q.** With `O=C1/C(=C/c2ccncc2)SC(=S)N1Cc1ccccc1` as the compound, how does the activity change, negative = cytotoxicity read?
**A.** -5.23% (inactive)

same assay, conditions: HepG2 viability, CellTiter-Glo luminescence, 48 h; at 21 µM (top of the series)

**Q.** For `COc1ccc(NC(=O)c2ccc(OC(C)C(=O)O)cc2)cc1Cl` (centres undefined), which activity change, negative = cytotoxicity is on record?
**A.** -17.9% (inactive)

**Q.** For `CNC[C@@H]1Oc2ccc(NS(=O)(=O)c3cn(C)cn3)cc2CC(=O)N([C@H](C)CO)C[C@@H]1C`, which activity change, negative = cytotoxicity is on record?
**A.** -1.51% (inactive)

system: HepG2 viability, CellTiter-Glo luminescence, 48 h; experiment: as above; settings: not given

**Q.** For `C/C(=N\NC(=S)Nc1ccc(C)cc1)c1ccccn1`, which AC35 is on record?
**A.** 11.9 µM

**Q.** With `CC(C)=CCN(C(=O)C#Cc1ccccc1)[C@H](CO)c1ccccc1` as the compound, how does the AC35 read?
**A.** 20.3 µM

**Q.** Which AC35 does the source give for `C/C(=N\NC(=S)Nc1cccc(Cl)c1)c1ccccn1` here?
**A.** 13.2 µM

**Q.** With `C[C@H]1CCCCO[C@@H](CN(C)CC2CCCCC2)[C@@H](C)CN([C@@H](C)CO)C(=O)c2cc(NC(=O)C3CCCCC3)ccc2O1` as the compound, how does the AC35 read?
**A.** 21.4 µM

**Q.** For `O=c1[nH]c(=O)n([C@H]2C[C@H](O)[C@@H](CO)O2)cc1C(F)(F)F`, which AC35 is on record?
**A.** 14.3 µM

**Q.** For `C/C(=N\NC(=S)N1CCCCC1)c1cccc(C)n1`, which AC35 is on record?
**A.** 2.55 µM

**Q.** Which AC35 does the source give for `O=C(CSc1nnc2c3ccccc3n(Cc3ccccc3)c2n1)NCc1ccco1` here?
**A.** 19.5 µM

**Q.** For `C[C@H](CO)N1C[C@H](C)[C@@H](CN(C)CC2CC2)OCCCC[C@H](C)Oc2ccc(NC(=O)Nc3cccc4ccccc34)cc2C1=O`, which AC35 is on record?
**A.** 79.9 µM

**Q.** For `C[C@H](CO)N1C[C@H](C)[C@H](CN(C)C(=O)Nc2ccc(C(F)(F)F)cc2)OCCCC[C@H](C)Oc2ccc(NC(=O)Nc3ccc(F)cc3)cc2C1=O`, which AC35 is on record?
**A.** 55.6 µM

**Q.** With `Fc1ccc2c(c1)c1nnc(SCCN3CCOCC3)nc1n2Cc1ccccc1` as the compound, how does the AC35 read?
**A.** 33.7 µM

**Q.** With `COc1ccc2nc(Nc3nc(C)c(CCC(C)C)c(=O)[nH]3)nc(C)c2c1` as the compound, how does the AC35 read?
**A.** 3.44 µM

**Q.** Which AC35 does the source give for `Nc1ccn([C@@H]2O[C@H](CO)[C@@H](O)C2O)c(=O)n1` (some centres undefined) here?
**A.** 7.36 µM

**Q.** With `CCn1c2ccccc2c2cc(/C=N/n3cnnc3)ccc21` as the compound, how does the AC35 read?
**A.** 22.1 µM

**Q.** Which AC35 does the source give for `C/C(=N\NC(=S)Nc1ccccc1Cl)c1ccccn1` here?
**A.** 9.26 µM

**Q.** With `CSc1nc(-c2ccc(C)cc2)nc(C(Cl)Cl)n1` as the compound, how does the AC35 read?
**A.** 36 µM

**Q.** With `COc1ccc2[nH]c(C(=O)N/N=C/c3ccc(O)cc3O)cc2c1` as the compound, how does the AC35 read?
**A.** 46.4 µM

**Q.** For `COc1cccc(/C=N/Nc2ncnc3c2ncn3Cc2ccccc2)c1O`, which AC35 is on record?
**A.** 26.4 µM

**Q.** For `C[C@H](CO)N1C[C@H](C)[C@@H](CN(C)Cc2ccc(-c3ccccc3)cc2)Oc2ccc(NC(=O)Nc3cccc4ccccc34)cc2CC1=O`, which AC35 is on record?
**A.** 37 µM

**Q.** With `C[C@@H]1CN([C@@H](C)CO)C(=O)c2cc(NC(=O)Nc3ccc4c(c3)OCO4)ccc2O[C@H]1CN(C)CC1CCCCC1` as the compound, how does the AC35 read?
**A.** 28.9 µM

**Q.** With `C[C@@H]1CN([C@@H](C)CO)C(=O)c2cc(NC(=O)Nc3ccc(C(F)(F)F)cc3)ccc2O[C@@H](C)CCCCO[C@@H]1CN(C)CC1CCCCC1` as the compound, how does the AC35 read?
**A.** 40.7 µM

**Q.** For `CC(=O)Nc1nc(C)c(-c2csc(Nc3ccc(O)cc3)n2)s1`, which AC35 is on record?
**A.** 19.6 µM

**Q.** For `C/C=C/C/C=C/CCC(=O)[C@H]1O[C@H]1C(N)=O`, which AC35 is on record?
**A.** 14 µM and 60.1 µM
